Experimental data as given in patent US20130303564A1, “METHOD FOR TREATING A NEURODEGENERATIVE DISORDER” (RUSH UNIVERSITY MEDICAL CENTER, priority 2012, published 2013).

Experiments:
NF-κB = assay: Transcriptional activity of NF-κB (PBIIX-Luc reporter) in BV-2 microglial cells; assay type: cell-based, mouse; settings: co-incubated with NaPB 6 h
Description: Transcriptional activity of NF-κB: Transcriptional activity of NF-κB was assayed. […] After 24 h of transfection, […], and firefly and Renilla luciferase activities were recorded in a TD-20/20 Luminometer (Turner Designs, Sunnyvale, Calif.) by analyzing total cell extract according to standard instructions provided in the Dual Luciferase Kit (Promega), Relative luciferase activity of cell extracts was typically represented as (firefly luciferase value/Renilta luciferase value)×10^−3.

BV-2 microglial cells = assay: Superoxide production in microglial cells; assay type: cell-based, mouse; settings: co-incubated with NaPB 6 h, then LPS 10 min
From the text: Results represent three independent experiments.
Superoxide measurements: Superoxide production was detected by LumiMax™ Superoxide Anion Detection Kit (Stratagene) as described by us (30).

primary mouse microglia = assay: LPS-induced NO (nitrite) production in primary mouse microglia; assay type: cell-based; settings: other HDAC inhibitors, different concentrations, 6 h preincubation, LPS 24 h
Description: Primary mouse microglia were treated with different concentrations of NaPB for 6 h followed by stimulation with LPS under serum-free condition. After 24 h of stimulation, concentrations of nitrite were measured in supernatants (A) and the level of iNOS protein was monitored in cells by Western blot (B). […] After 5 h of stimulation, the expression of iNOS mRNA was monitored by semi-quantitative RT-PCR (C). Cells preinctibated with different concentration of trichostatin A (TSA) and sodium butyrate (NaBu) for 6 h were stimulated with LPS for 24 h under serum-free condition followed by monitoring the level of nitrite in supernatants (p). […] Primary human astroglia isolated from fetal brain tissues were treated with different concentrations of NaPB for 6 h followed by stimulation with IL-1β under serum-free condition. After 48 h of stimulation, concentrations of nitrite (E) were measured in supernatants. Human astroglia plated at 70-80% confluence in 12-well plates were co-transfected with 0.25 μg of phiNOS(7.2)Luc and 12.5 ng of pRL-TK using the Lipofectamine-Plus (Invitrogen). Twenty-four h after transfection, cells received NaPB. After 6 h of incubation, cells were stimulated with IL-1β (20 ng/ml) for 12 h. Firefly (ff-Luc) and Renilla (r-Luc) luciferase activities were obtained by analyzing the total cell extract (F).
Activated microglia and astroglia are known to produce excessive amount of NO having the potential of damaging neurons in neurodegenerative disorders. We investigated the effect of NaPB on the expression of iNOS in microglia. LPS is a prototype inducer of various proinflammatory molecules in different cell types including mouse microglia. Therefore, primary mouse microglia preincubated with different doses of NaPB for 6 h were stimulated with LPS under serum-free condition. […] We used trichostatin A (TSA) and sodium butyrate (NaBu) for this purpose.
Isolation of Mouse Microglia: Microglia were isolated from mixed glial cultures. Briefly, on day 7-9, the mixed glial cultures were washed three times with Dulbecco's modified Eagle's medium/F-12 and subjected to shaking at 240 rpm for 2 h at 37° C. on a rotary shaker. The floating cells were washed and seeded on to plastic tissue culture flasks and incubated at 37° C. for 1 h. The attached cells were seeded onto new plates for further studies. […] Mouse BV-2 microglial cells (kind gift from Virginia Bocchini of Universityof Perugia) were also maintained and induced as indicated above.

cholesterol = assay: Serum cholesterol in male C57/BL6 mice; assay type: in vivo, mouse; settings: 1 mg/kg body wt/d via gavage, 7 d
Description: Mice (6-8 wk old) were treated with NaPB (200 mg/kg body wt/d) and pravastatin (1 mg/kg body wt/d) separately via gavage for 7 d followed by quantification of cholesterol in serum using a simple fluorometric method.
Intermediates of the mevalonate pathway play a role in the expression of iNOS and proinflammatory cytokines in glial cells. End product of the mevalonate pathway is cholesterol and therefore, we investigated if NaPB had any effect on the level of cholesterol in vivo in mice.
Assay of cholesterol in serum: Total cholesterol was quantified irr serum by using an Amplex Red Cholesterol Assay kit from Invitrogen. Briefly, cholesterol was oxidized by cholesterol oxidase to yield H2O2, which then reacted with 10-acetyl-3,7 dihydroxyphenoxazine (Amplex Red). In the presence of horseradish peroxidase (HRP), this Amplex Red:H2O2 complex produced highly fluorescent resorufin, which was detected by fluorometry.

Row | Compound | effect on NaPB-mediated inhibition of NF-κB activation (NF-κB) | effect on NaPB-mediated inhibition of superoxide production (BV-2 microglial cells) | effect on LPS-induced production of NO (primary mouse microglia) | reduction of the level of cholesterol in serum (cholesterol)
1 | CC(C)=CCC/C(C)=C/CC/C(C)=C/COP(=O)(O)OP(=O)(O)O [FPP, farnesyl pyrophosphate] | abrogated the inhibitory effect of NaPB | – | – | –
2 | CC(C)=CCC/C(C)=C/CC/C(C)=C/CC/C(C)=C/COP(=O)(O)OP(=O)(O)O [GGPP, geranylgeranyl pyrophosphate] | abrogated the inhibitory effect of NaPB | abolished the inhibitory effect of NaPB | – | –
3 | CC(C)(CO[P@@](=O)(O)O[P@@](=O)(O)OC[C@H]1O[C@@H](n2cnc3c(N)ncnc32)[C@H](O)[C@@H]1OP(=O)(O)O)[C@@H](O)C(=O)NCCC(=O)NCCSC(=O)C[C@@](C)(O)CC(=O)O [HMG-CoA] | abrogated the inhibitory effect of NaPB | abolished the inhibitory effect of NaPB | – | –
4 | CCCC(=O)[O-].[Na+] [NaBu, sodium butyrate] | – | – | stimulated | –
5 | CC(/C=C/C(=O)NO)=C\[C@@H](C)C(=O)c1ccc(N(C)C)cc1 [TSA, trichostatin A] | – | – | attenuated | –
6 | CC(C)CCC[C@@H](C)[C@H]1CC[C@H]2[C@@H]3CC=C4C[C@@H](O)CC[C@]4(C)[C@H]3CC[C@]12C [cholesterol] | had no effect | had no effect | – | –
7 | COC1=C(OC)C(=O)C(C/C=C(\C)CC/C=C(\C)CC/C=C(\C)CC/C=C(\C)CC/C=C(\C)CC/C=C(\C)CC/C=C(\C)CC/C=C(\C)CC/C=C(\C)CCC=C(C)C)=C(C)C1=O [coenzyme Q] | had no effect | had no effect | – | –
8 | CC(O)(CCO)CC(=O)O (centres unmarked) [mevalonate] | abrogated the inhibitory effect of NaPB | abolished the inhibitory effect of NaPB | – | –
9 | CC[C@H](C)C(=O)O[C@H]1C[C@H](O)C=C2C=C[C@H](C)[C@H](CC[C@@H](O)C[C@@H](O)CC(=O)O)[C@H]21 [pravastatin] | – | – | – | ~29%
